Literature values as cited in patent publication US20020072508A1, “Anti-depressant, stress suppressor and mood improver” (LIPOGEN LTD., priority 2000, published 2002).

Test system: withdrawal symptoms associated with addiction (cigarettes, alcohol, narcotics)

Question: With phosphatidic acid as the substance, how does the “withdrawal symptoms associated with addiction” value read?
Answer: Its value is “alleviate withdrawal symptoms”.
